Reference: US8680119B2, “Ethers, secondary amines and derivatives thereof as modulators of the 5-HT2A serotonin receptor useful for the treatment of disorders related thereto” (Arena Pharmaceuticals, Inc., priority 2006, dated 2014)

Test system: diabetic rats
Test: not given
Conditions: range stated for all three drugs; cited from earlier work
For `COc1cccc(CCc2ccccc2OCC(CN(C)C)OC(=O)CCC(=O)O)c1` (stereo not shown) [sarpogrelate], the “correction of a 19.8% sciatic motor conduction deficit” value is given as 82.6-99.7%. For `Cc1nc2sccn2c(=O)c1CCN1CCC(=C(c2ccc(F)cc2)c2ccc(F)cc2)CC1` [ritanserin], the “correction of a 19.8% sciatic motor conduction deficit” value is given as 82.6-99.7%. In the case of `O=CN1CCC(C(=O)NCCN2CCC(=C3c4ccccc4C=Cc4ccccc43)CC2)CC1` [AT-1015], the “correction of a 19.8% sciatic motor conduction deficit” value is listed as 82.6-99.7%.

Target: human 5-HT2A receptor (Homo sapiens (Human), UniProt P28223)
Test: [125I]DOI radioligand binding assay
Conditions: 0.5 nM [125I]DOI, COS7 membranes with recombinant human 5-HT2A receptor
Experimental: For the IP accumulation assay (Example 3), HEK293 cells were transfected while for the DOI binding assay (Example 4) COS7 cells were transfected. Several protocols well known in the art can be used to transfect cells. The following protocol is representative of the transfection procedures used herein for COS7 or 293 cells.
On day one, COS-7 cells were plated onto 24 well plates, usually 1×10^5 cells/well or 2×10^5 cells/well, respectively. On day two, the cells were transfected by first mixing 0.25 μg cDNA in 50 μL serum-free DMEM/well and then 2 μL lipofectamine in 50 μL serum-free DMEM/well. The solutions (“transfection media”) were gently mixed and incubated for 15-30 minutes at room temperature. The cells were washed with 0.5 mL PBS and then 400 μL of serum free media was mixed with the transfection media and added to the cells. The cells were then incubated for 3-4 hours at 37° C./5% CO2. Then the transfection media was removed and replaced with 1 mL/well of regular growth media.
Compounds of the invention were tested for their ability to bind to a 5-HT2A receptor clone membrane preparation using a radioligand binding assay. Briefly, COS cells were transiently transfected with a pCMV expression vector containing a human 5-HT2A receptor (for the sequence of the receptor see U.S. Pat. No. 6,541,209, SEQ ID NO:24) as described in Example 2.
COS7 cells transfected with recombinant human 5-HT2A receptors were cultured for 48 hr post transfection, collected, washed with ice-cold phosphate buffered saline, pH7.4 (PBS), and then centrifuged at 48,000×g for […] at 4° C. The cell pellet was then resuspended in wash buffer containing 20 mM HEPES pH 7.4 and 0.1 mM EDTA, homogenized on ice using a Brinkman polytron, and recentrifuged at 48,000×g for 20 min. at 4° C. The resultant pellet was then resuspended in 20 mM HEPES, pH 7.4, homogenized on ice, and centrifuged (48,000×g for 20 min at 4° C.). Crude membrane pellets were stored at −80° C. until used for radioligand binding assays.
Radioligand binding assays for human 5-HT2A receptor was conducted using the 5-HT2 agonist [^125I]DOI as radioligand. To define nonspecific binding, 10 μM DOI was used for all assays. For competitive binding studies, 0.5 nM [^125I]DOI was used and compounds were assayed over a range of 0.01 nM to 10 μM. Assays were conducted in a total volume of 200 μl in 96-well Perkin Elmer GF/C filter plates in assay buffer (50 mM Tris-HCl, pH 7.4, 0.5 mM EDTA, 5 mM MgCl2, and 10 μM pargyline). […] Plates were then dried at room temperature and counted in a Wallac microBeta scintillation counter.
In the case of `COCCOc1ccc(NC(=O)c2cccc(C(F)(F)F)c2)cc1-c1ccnn1C` [Compound 52, N-[4-(2-Methoxy-ethoxy)-3-(2-methyl-2H-pyrazol-3-yl)-phenyl]-3-trifluoromethyl-benzamide], the IC50 is reported as 4.4 nM. `COCCNCCOc1ccc(NC(=O)c2cccc(C(F)(F)F)c2)cc1-c1c(Cl)cnn1C` [Compound 15, N-{3-(4-Chloro-2-methyl-2H-pyrazol-3-yl)-4-[2-(2-methoxy-ethylamino)-ethoxy]-phenyl}-3-trifluoromethyl-benzamide] showed an IC50 of 0.082 nM. For `COCCNC(=O)COc1ccc(NC(=O)c2cccc(C(F)(F)F)c2)cc1-c1c(Cl)cnn1C` [Compound 50, N-{3-(4-Chloro-2-methyl-2H-pyrazol-3-yl)-4-[(2-methoxy-ethylcarbamoyl)-methoxy]-phenyl}-3-trifluoromethyl-benzamide], the IC50 was 52 nM. For `COc1cccc(C(=O)Nc2ccc(OCCO)c(-c3c(Cl)cnn3C)c2)c1` [Compound 68, N-[3-(4-Chloro-2-methyl-2H-pyrazol-3-yl)-4-(2-hydroxy-ethoxy)-phenyl]-3-methoxy-benzamide], the IC50 was 0.51 nM.
